The results in this text go back to the OligoGym collection.

HELM strings list units from the 5' end as sugar, base in round brackets, then linkage (d deoxyribose, r ribose, m 2'-O-methyl, p phosphodiester). Strings are as the collection lists them; they lack the last nucleoside at the 3' end of the tested compound. [moe] = 2'-O-(2-methoxyethyl) (MOE); [sp] = phosphorothioate linkage; [m5C] = 5-methylcytosine

The target of the data set is FUS. As to the kind of experiment: mouse, dose not given. The note with it: ASO.
“RNA1{[moe](G)[sp].[moe]([m5C])p.[moe](A)p.[moe](A)p.[moe](T)p.d(G)[sp].d(T)[sp].d([m5C])[sp].d(A)[sp].d([m5C])[sp].d([m5C])[sp].d(T)[sp].d(T)[sp].d(T)[sp].d([m5C])[sp].[moe](A)p.[moe](T)p.[moe](A)[sp].[moe]([m5C])}$$$$ (last 3' nucleoside missing)” gave a 3 h FOB score of 0 score 0-7.

On to “RNA1{[moe](G)[sp].[moe](T)p.[moe](T)p.[moe](T)p.[moe](A)p.d(T)[sp].d([m5C])[sp].d(T)[sp].d(G)[sp].d(A)[sp].d(A)[sp].d(T)[sp].d(T)[sp].d([m5C])[sp].d(G)[sp].[moe]([m5C])p.[moe]([m5C])p.[moe](A)[sp].[moe](T)}$$$$ (last 3' nucleoside missing)”, for which the 3 h FOB score was determined as 5.25 score 0-7.

For “RNA1{[moe](G)[sp].[moe](A)p.[moe](G)p.[moe]([m5C])p.[moe](T)p.d(A)[sp].d(G)[sp].d(T)[sp].d(T)[sp].d(T)[sp].d([m5C])[sp].d(T)[sp].d(A)[sp].d(T)[sp].d(T)[sp].[moe](T)p.[moe](G)p.[moe]([m5C])[sp].[moe]([m5C])}$$$$ (last 3' nucleoside missing)”, the 3 h FOB score was determined as 0 score 0-7.

Take “RNA1{[moe](A)[sp].[moe](G)p.[moe](T)p.[moe](T)p.[moe](A)p.d([m5C])[sp].d(A)[sp].d(A)[sp].d(T)[sp].d(T)[sp].d(A)[sp].d([m5C])[sp].d(A)[sp].d(T)[sp].d(A)[sp].[moe](G)p.[moe](T)p.[moe]([m5C])[sp].[moe]([m5C])}$$$$ (last 3' nucleoside missing)”: the 3 h FOB score was found to be 4 score 0-7.

For the substance “RNA1{[moe](T)[sp].[moe](T)p.[moe](A)p.[moe]([m5C])p.[moe](A)p.d(A)[sp].d(T)[sp].d(T)[sp].d(A)[sp].d([m5C])[sp].d(A)[sp].d(T)[sp].d(A)[sp].d(G)[sp].d(T)[sp].[moe]([m5C])p.[moe]([m5C])p.[moe](G)[sp].[moe](A)}$$$$ (last 3' nucleoside missing)”, the 3 h FOB score is 2 score 0-7.

With “RNA1{[moe](T)[sp].[moe]([m5C])p.[moe](A)p.[moe](T)p.[moe]([m5C])p.d(G)[sp].d(G)[sp].d(T)[sp].d(T)[sp].d(T)[sp].d([m5C])[sp].d([m5C])[sp].d([m5C])[sp].d(T)[sp].d(T)[sp].[moe](G)p.[moe]([m5C])p.[moe](A)[sp].[moe](G)}$$$$ (last 3' nucleoside missing)”, the 3 h FOB score is 2.25 score 0-7.

As to “RNA1{[moe](A)[sp].[moe](G)p.[moe](T)p.[moe]([m5C])p.[moe](A)p.d(G)[sp].d(G)[sp].d(T)[sp].d(T)[sp].d(A)[sp].d(A)[sp].d([m5C])[sp].d([m5C])[sp].d(A)[sp].d(T)[sp].[moe](T)p.[moe](A)p.[moe]([m5C])[sp].[moe]([m5C])}$$$$ (last 3' nucleoside missing)”, the 3 h FOB score came out at 1 score 0-7.

On to “RNA1{[moe](G)[sp].[moe](G)p.[moe](T)p.[moe]([m5C])p.[moe](A)p.d([m5C])[sp].d(T)[sp].d(T)[sp].d(T)[sp].d(T)[sp].d(A)[sp].d(A)[sp].d(T)[sp].d(G)[sp].d(G)[sp].[moe](G)p.[moe](A)p.[moe](A)[sp].[moe]([m5C])}$$$$ (last 3' nucleoside missing)”, for which the 3 h FOB score was 4.75 score 0-7.

The substance “RNA1{[moe](T)[sp].[moe](G)p.[moe](T)p.[moe](T)p.[moe](T)p.d(A)[sp].d(T)[sp].d([m5C])[sp].d(T)[sp].d(G)[sp].d(A)[sp].d(A)[sp].d(T)[sp].d(T)[sp].d([m5C])[sp].[moe](G)p.[moe]([m5C])p.[moe]([m5C])[sp].[moe](A)}$$$$ (last 3' nucleoside missing)” yielded a 3 h FOB score of 3 score 0-7.

Substance “RNA1{[moe](G)[sp].[moe](G)p.[moe]([m5C])p.[moe](A)p.[moe](T)p.d(T)[sp].d([m5C])[sp].d(T)[sp].d(A)[sp].d([m5C])[sp].d([m5C])[sp].d([m5C])[sp].d(T)[sp].d(A)[sp].d([m5C])[sp].[moe]([m5C])p.[moe]([m5C])p.[moe]([m5C])[sp].[moe](T)}$$$$ (last 3' nucleoside missing)” displayed a 3 h FOB score of 1 score 0-7.

Consider “RNA1{[moe](G)[sp].[moe](T)p.[moe](A)p.[moe](G)p.[moe](G)p.d(G)[sp].d(T)[sp].d([m5C])[sp].d([m5C])[sp].d(T)[sp].d(T)[sp].d([m5C])[sp].d(A)[sp].d(A)[sp].d(A)[sp].[moe](T)p.[moe]([m5C])p.[moe](T)[sp].[moe](T)}$$$$ (last 3' nucleoside missing)”, for which the 3 h FOB score turned out to be 1 score 0-7.

“RNA1{[moe](G)[sp].[moe](G)p.[moe](T)p.[moe](T)p.[moe](G)p.d(A)[sp].d([m5C])[sp].d(A)[sp].d(A)[sp].d([m5C])[sp].d([m5C])[sp].d(A)[sp].d(A)[sp].d(G)[sp].d(T)[sp].[moe](A)p.[moe](G)p.[moe](T)[sp].[moe](T)}$$$$ (last 3' nucleoside missing)” displayed a 3 h FOB score of 5 score 0-7.

“RNA1{[moe](A)[sp].[moe](T)p.[moe]([m5C])p.[moe](A)p.[moe](T)p.d([m5C])[sp].d(G)[sp].d(G)[sp].d(T)[sp].d(T)[sp].d(T)[sp].d([m5C])[sp].d([m5C])[sp].d([m5C])[sp].d(T)[sp].[moe](T)p.[moe](G)p.[moe]([m5C])[sp].[moe](A)}$$$$ (last 3' nucleoside missing)” gave a 3 h FOB score of 5.5 score 0-7.

Substance “RNA1{[moe](G)[sp].[moe]([m5C])p.[moe](A)p.[moe](A)p.[moe](A)p.d(G)[sp].d(A)[sp].d(T)[sp].d(A)[sp].d(G)[sp].d(T)[sp].d(T)[sp].d(A)[sp].d([m5C])[sp].d([m5C])[sp].[moe]([m5C])p.[moe](T)p.[moe]([m5C])[sp].[moe]([m5C])}$$$$ (last 3' nucleoside missing)” yielded a 3 h FOB score of 1 score 0-7.

“RNA1{[moe](G)[sp].[moe](G)p.[moe](T)p.[moe](T)p.[moe](A)p.d([m5C])[sp].d(A)[sp].d(A)[sp].d(A)[sp].d(A)[sp].d(T)[sp].d(A)[sp].d(A)[sp].d([m5C])[sp].d(G)[sp].[moe](A)p.[moe](G)p.[moe](G)[sp].[moe](G)}$$$$ (last 3' nucleoside missing)” showed a 3 h FOB score of 3 score 0-7.

“RNA1{[moe]([m5C])[sp].[moe]([m5C])p.[moe](G)p.[moe](T)p.[moe](G)p.d(T)[sp].d(T)[sp].d(G)[sp].d(T)[sp].d(T)[sp].d(T)[sp].d([m5C])[sp].d([m5C])[sp].d([m5C])[sp].d([m5C])[sp].[moe](G)p.[moe](A)p.[moe](A)[sp].[moe](A)}$$$$ (last 3' nucleoside missing)” yielded a 3 h FOB score of 1 score 0-7.

Substance “RNA1{[moe](T)[sp].[moe]([m5C])p.[moe]([m5C])p.[moe](A)p.[moe]([m5C])p.d(G)[sp].d(A)[sp].d(A)[sp].d(T)[sp].d(T)[sp].d([m5C])[sp].d(A)[sp].d(G)[sp].d(T)[sp].d(T)[sp].[moe](T)p.[moe](G)p.[moe](T)[sp].[moe](G)}$$$$ (last 3' nucleoside missing)” returned a 3 h FOB score of 4 score 0-7.

As to “RNA1{[moe](G)[sp].[moe](T)p.[moe](T)p.[moe](A)p.[moe]([m5C])p.d(A)[sp].d(A)[sp].d(T)[sp].d(T)[sp].d(A)[sp].d([m5C])[sp].d(A)[sp].d(T)[sp].d(A)[sp].d(G)[sp].[moe](T)p.[moe]([m5C])p.[moe]([m5C])[sp].[moe](G)}$$$$ (last 3' nucleoside missing)”, the 3 h FOB score stood at 4.5 score 0-7.

“RNA1{[moe](A)[sp].[moe](G)p.[moe](G)p.[moe]([m5C])p.[moe](A)p.d(A)[sp].d([m5C])[sp].d(T)[sp].d(T)[sp].d([m5C])[sp].d([m5C])[sp].d([m5C])[sp].d([m5C])[sp].d(T)[sp].d(T)[sp].[moe](A)p.[moe](A)p.[moe](A)[sp].[moe](G)}$$$$ (last 3' nucleoside missing)” gave a 3 h FOB score of 1 score 0-7.

For “RNA1{[moe]([m5C])[sp].[moe]([m5C])[sp].[moe](T)[sp].[moe](G)[sp].[moe](G)[sp].d(T)[sp].d(T)[sp].d(A)[sp].d(T)[sp].d(T)[sp].d(T)[sp].d([m5C])[sp].d([m5C])[sp].d([m5C])[sp].d(A)[sp].[moe](T)[sp].[moe](G)[sp].[moe](A)[sp].[moe](G)}$$$$ (last 3' nucleoside missing)”, the 3 h FOB score was 6 score 0-7.

Substance “RNA1{[moe](A)[sp].[moe]([m5C])p.[moe]([m5C])p.[moe](A)p.[moe](T)p.d([m5C])[sp].d([m5C])[sp].d(T)[sp].d(T)[sp].d(A)[sp].d(A)[sp].d(A)[sp].d(A)[sp].d([m5C])[sp].d([m5C])[sp].[moe](G)p.[moe](T)p.[moe](G)[sp].[moe](T)}$$$$ (last 3' nucleoside missing)” showed a 3 h FOB score of 1 score 0-7.

In turn, “RNA1{[moe](G)[sp].[moe](T)p.[moe](A)p.[moe](T)p.[moe](A)p.d([m5C])[sp].d([m5C])[sp].d(A)[sp].d(A)[sp].d([m5C])[sp].d(T)[sp].d(T)[sp].d([m5C])[sp].d(A)[sp].d([m5C])[sp].[moe]([m5C])p.[moe](A)p.[moe](T)[sp].[moe]([m5C])}$$$$ (last 3' nucleoside missing)” gave a 3 h FOB score of 1 score 0-7.

As to “RNA1{[moe](G)[sp].[moe]([m5C])p.[moe]([m5C])p.[moe](A)p.[moe]([m5C])p.d(A)[sp].d(G)[sp].d(A)[sp].d([m5C])[sp].d(T)[sp].d([m5C])[sp].d(A)[sp].d(A)[sp].d(T)[sp].d(T)[sp].[moe](G)p.[moe](T)p.[moe](A)[sp].[moe](A)}$$$$ (last 3' nucleoside missing)”, the 3 h FOB score was 1 score 0-7.

“RNA1{[moe](G)[sp].[moe](A)p.[moe]([m5C])p.[moe]([m5C])p.[moe]([m5C])p.d([m5C])[sp].d(T)[sp].d([m5C])[sp].d(T)[sp].d(T)[sp].d(A)[sp].d(T)[sp].d(T)[sp].d(A)[sp].d(A)[sp].[moe]([m5C])p.[moe]([m5C])p.[moe](T)[sp].[moe](G)}$$$$ (last 3' nucleoside missing)” returned a 3 h FOB score of 4 score 0-7.

Substance “RNA1{[moe](A)[sp].[moe](G)p.[moe](G)p.[moe](T)p.[moe](T)p.d(A)[sp].d([m5C])[sp].d(A)[sp].d(A)[sp].d(A)[sp].d(A)[sp].d(T)[sp].d(A)[sp].d(A)[sp].d([m5C])[sp].[moe](G)p.[moe](A)p.[moe](G)[sp].[moe](G)}$$$$ (last 3' nucleoside missing)” displayed a 3 h FOB score of 5.75 score 0-7.
